According to ChEMBL document CHEMBL1150022, “O-benzyl hydroxyproline as a bioisostere for Phe-Pro: Novel dipeptide thrombin inhibitors” (Bioorg Med Chem Lett, 1996):
pIC50: −log10 of the molar value. Where a SMILES comes first, the peptide text is derived from it. [ ]: non-standard residue; d: D form. The star is where a group is joined. Hydrocinnamoyl = O=C(CCc1ccccc1)*; Hyp = O=C(O)[C@@H]1C[C@@H](O)CN1; Propionyl = CCC(=O)*; Bn = c1ccc(C*)cc1; Ms = CS(=O)(=O)*; CH2Cl = ClC*

biological target: Prothrombin (Homo sapiens, UniProt P00734); experiment: Inhibition of thrombin

Compared with `CC(=O)N1C[C@H](OCCC(c2ccccc2)c2ccccc2)C[C@H]1C(=O)N[C@@H](CCCN=C(N)N)C(=O)CCl`, `NC(N)=NCCC[C@H](NC(=O)[C@@H]1C[C@@H](OCc2ccccc2)CN1C(=O)[C@H](N)Cc1ccccc1)C(=O)CCl` is 0.52 log units higher in pIC50: 8.00 for the first, 8.52 for the second.

Going from `N=C(N)NCCC[C@H](NC(=O)[C@@H]1CCCN1C(=O)[C@H](N)Cc1ccccc1)C(=O)CCl` to `CC(=O)N1C[C@@H](OCc2ccccc2)C[C@H]1C(=O)N[C@@H](CCCNC(=N)N)C(=O)CCl`, the pIC50 falls from 8.82 to 5.34 (3.48 log units).

Compared with `CC(=O)N1C[C@H](CCc2ccccc2)C[C@H]1C(=O)N[C@@H](CCCN=C(N)N)C(=O)CCl`, `CC(=O)N1C[C@H](OCCCc2ccccc2)C[C@H]1C(=O)N[C@@H](CCCN=C(N)N)C(=O)CCl` is 0.45 log units higher in pIC50: 7.40 for the first, 7.85 for the second. The second is the more potent here.

Going from `CCCCO[C@@H]1C[C@@H](C(=O)N[C@@H](CCCNC(=N)N)C(=O)CCl)N(C(C)=O)C1` to `CC(=O)N1C[C@H](OCc2ccccc2)C[C@H]1C(=O)N[C@@H](CCCNC(=N)N)C(=O)CCl`, the pIC50 rises from 7.67 to 9.05 (1.38 log units).

First: CCN1C[C@H](OCc2ccccc2)C[C@H]1C(=O)N[C@@H](CCCNC(=N)N)C(=O)CCl
Second: CS(=O)(=O)N1C[C@H](OCc2ccccc2)C[C@H]1C(=O)N[C@@H](CCCNC(=N)N)C(=O)CCl (Ms-[Hyp](Bn)-Arg-CH2Cl)
The pIC50 of the first is 2.55 log units lower: 5.07 for the first, 7.62 for the second. The second is the more potent here.

Going from `N=C(N)NCCC[C@H](NC(=O)[C@@H]1C[C@H](OCc2ccccc2)CN1C(=O)[C@H](N)Cc1ccccc1)C(=O)CCl` to `N=C(N)NCCC[C@H](NC(=O)[C@@H]1C[C@@H](OCc2ccccc2)CN1C(=O)CCc1ccccc1)C(=O)CCl` (Hydrocinnamoyl-[Hyp](Bn)-Arg-CH2Cl), the pIC50 falls from 8.14 to 7.50 (0.64 log units).

Going from `CC(=O)N1C[C@H](OCC2CCCCC2)C[C@H]1C(=O)N[C@@H](CCCN=C(N)N)C(=O)CCl` to `CC(=O)N1CCC[C@H]1C(=O)N[C@@H](CCCN=C(N)N)C(=O)CCl` (Ac-Pro-Arg-CH2Cl), the pIC50 falls from 8.31 to 5.87 (2.44 log units). The first is the more potent here.

`CCC(=O)N1C[C@H](OCc2ccccc2)C[C@H]1C(=O)N[C@@H](CCCN=C(N)N)C(=O)CCl` (Propionyl-[Hyp](Bn)-Arg-CH2Cl) gave a pIC50 of 7.89.
